From US10807992B2, “Single enantiomer antiparasitic compounds” (priority 2017, dated 2020)
Where two headings read alike, the source gives them in different places.

What was measured:
Aedes aegypti = experiment: In vitro ingestion activity against adult mosquitoes (artificial feeding, bovine blood); settings: read-out: Mortality % R1 + R2
Experimental: Aedes aegypti (Louisiana Biologicals Inc., New Orleans, La.) eggs were allowed to hatch, close, and age between 3-5 days in an environmental chamber at 26° C., 80% humidity with light/dark cycles.
For mosquito ingestion tests, serial dilutions of the compound stock were performed using DMSO to achieve the desired range for EC50 and EC90 determination. An aliquot of each compound dilution was added to organic bovine blood with a final DMSO concentration of 0.5% and placed in a temperature-controlled artificial feeding container.
(§1) Compounds tested were: the C1 racemate, C1 (R) enantiomer, and the C1 (S) enantiomer. For Trial 3, the C1 (R) enantiomer and the C1 (S) enantiomer were further chiral purified to achieve >99% purity.
For both contact and ingestion assays, five female Aedes aegypti adults were added to each vial or cage. The test vials for contact assays were held in an environmental chamber at 24° C., 80% humidity with light/dark cycles (12 hours each). The cages for mosquito ingestion assays were held in a temperature-controlled artificial feeding apparatus to allow continual access to organic bovine blood containing the desired concentration of compound. Fresh aliquots of compound-spiked bovine blood were provided daily for the duration of the study.
Assessment of mortality/knockdown was performed at various time points between 30 minutes and 24 hours post infestation. Mosquitoes showing no movement or mosquitoes that were knocked down were noted as dead. Results from trial 1 and trial 2 contact assays are shown in Tables 12 and 13, respectively and the results from trial 3 mosquito ingestion assay is shown in table 14.
For the mosquito contact and ingestion assays, each replicate contained 5 mosquitoes. For ease of calculation, the two replicates were added to equal a total of 10 mosquitoes.

Ixodes scapularis = experiment: In vitro contact activity against adult ticks (coated vial), I. scapularis; settings: for mortality at 0.006 µM: Trial 1, dose 0.006 μM; for mortality at 0.024 µM: Trial 1, dose 0.024 μM; for mortality at 0.098 µM: Trial 1, dose 0.098 μM; for mortality at 0.39 µM: Trial 1, dose 0.39 μM; for mortality at 1.56 µM: Trial 1, dose 1.56 μM; for mortality at 6.25 µM: Trial 1, dose 6.25 μM; for mortality at 25 µM: Trial 1, dose 25 μM; for mortality at 100 µM: Trial 1, dose 100 μM
Experimental: Rhipicephalus sanguineus, Dermacentor variabilis, Amblyomma americanum, (Ecto Services, Inc., Henderson, N.C.) and Ixodes scapularis (Oklahoma State University, Stillwater, Okla.) aged between 2-4 weeks post molt were held in an environmental chamber at 24° C., 80% humidity with 12-hour light/dark cycles.
For tick assays, vial caps were pre-drilled with a single hole in the center of each cap to allow air exchange. A filter paper (Whatman Grade 540 2.1 cm) was placed in the lid of each vial. An aliquot from each compound stock was added to an acetone/triton solution to achieve the desired top doses for the study. Serial dilutions were conducted from the top dose (i.e. 100 ppm) to achieve the desired titration range for EC50 and EC90 determination. For R. sanguineus, D. variabilis, and A. americanum, the final DMSO concentration in each test vial was 0.5%. For I. scapularis, compounds were solubilized directly in an acetone/triton solution due to I. scapularis' sensitivity to DMSO. A 459 μL aliquot of each compound formulation was transferred to a vial containing a Whatman Grade 540 2.1 cm filter paper. Vials were immediately placed on an unheated roller unit to allow for an even coating of the vial walls. After vials were coated, 41 μL of each compound formulation was added to the filter paper embedded in each vial cap. Each cap was allowed to dry. The vials were loosely capped and allowed to dry for a minimum of four hours in a chemical fume hood.
as §1
Ten adult ticks were added to each vial and held at 24° C., 80% humidity with 12-hour light/dark cycles. Adult ticks were assessed for percent mortality at various time points between 2 hours and 48 hours post infestation. Ticks were stimulated on a heated roller unit and evaluated. Ticks showing no movement, or very slow and uncoordinated movement were noted as dead.

O=C(CC(F)(F)F)N1CC2(C1)OCc1cc(C3=NS[C@](c4cc(Cl)c(F)c(Cl)c4)(C(F)(F)F)C3)ccc12 [C1 (R) enantiomer, (R)-1-[6-[5-(3,5-dichloro-4-fluoro-phenyl)-5-(trifluoromethyl)-4H-isothiazol-3-yl]spiro[1H-isobenzofuran-3,3′-azetidine]-1′-yl]-3,3,3-trifluoro-propan-1-one]
mortality at 0.049 ppm (Aedes aegypti; 24 h): 40%
mortality at 0.2 ppm (Aedes aegypti; 24 h): 30%
mortality at 0.78 ppm (Aedes aegypti; 24 h): 75%
mortality at 3.125 ppm (Aedes aegypti; 24 h): 100%
mortality at 12.5 ppm (Aedes aegypti; 24 h): 100%
mortality at 50 ppm (Aedes aegypti; 24 h): 100%
mortality at 0.049 ppm (Aedes aegypti): 10%
mortality at 0.2 ppm (Aedes aegypti): 10%
mortality at 0.78 ppm (Aedes aegypti): 0%
mortality at 3.125 ppm (Aedes aegypti): 11.1%
mortality at 12.5 ppm (Aedes aegypti): 100%
mortality at 50 ppm (Aedes aegypti): 88.9%
mortality at 0.006 µM (Ixodes scapularis; 2 h, Rep1): 0%
mortality at 0.006 µM (Ixodes scapularis; 2 h, Rep2): 0%
mortality at 0.024 µM (Ixodes scapularis; 2 h, Rep1): 0%
mortality at 0.024 µM (Ixodes scapularis; 2 h, Rep2): 0%
mortality at 0.098 µM (Ixodes scapularis; 2 h, Rep1): 0%
mortality at 0.098 µM (Ixodes scapularis; 2 h, Rep2): 0%
mortality at 0.39 µM (Ixodes scapularis; 2 h, Rep1): 0%
mortality at 0.39 µM (Ixodes scapularis; 2 h, Rep2): 0%
mortality at 1.56 µM (Ixodes scapularis; 2 h, Rep1): 0%
mortality at 1.56 µM (Ixodes scapularis; 2 h, Rep2): 0%
mortality at 6.25 µM (Ixodes scapularis; 2 h, Rep1): 0%
mortality at 6.25 µM (Ixodes scapularis; 2 h, Rep2): 0%
mortality at 25 µM (Ixodes scapularis; 2 h, Rep1): 0%
mortality at 25 µM (Ixodes scapularis; 2 h, Rep2): 0%
mortality at 100 µM (Ixodes scapularis; 2 h, Rep1): 0%
mortality at 100 µM (Ixodes scapularis; 2 h, Rep2): 0%
mortality at 0.006 µM (Ixodes scapularis; 6 h, Rep1): 0%
mortality at 0.006 µM (Ixodes scapularis; 6 h, Rep2): 0%
mortality at 0.024 µM (Ixodes scapularis; 6 h, Rep1): 0%
mortality at 0.024 µM (Ixodes scapularis; 6 h, Rep2): 0%
mortality at 0.098 µM (Ixodes scapularis; 6 h, Rep1): 0%
mortality at 0.098 µM (Ixodes scapularis; 6 h, Rep2): 0%
mortality at 0.39 µM (Ixodes scapularis; 6 h, Rep1): 0%
mortality at 0.39 µM (Ixodes scapularis; 6 h, Rep2): 0%
mortality at 1.56 µM (Ixodes scapularis; 6 h, Rep1): 0%
mortality at 1.56 µM (Ixodes scapularis; 6 h, Rep2): 0%
mortality at 6.25 µM (Ixodes scapularis; 6 h, Rep1): 0%
mortality at 6.25 µM (Ixodes scapularis; 6 h, Rep2): 0%
mortality at 25 µM (Ixodes scapularis; 6 h, Rep1): 0%
mortality at 25 µM (Ixodes scapularis; 6 h, Rep2): 0%
mortality at 100 µM (Ixodes scapularis; 6 h, Rep1): 0%
mortality at 100 µM (Ixodes scapularis; 6 h, Rep2): 0%
mortality at 0.006 µM (Ixodes scapularis; 12 h, Rep1): 0%
mortality at 0.006 µM (Ixodes scapularis; 12 h, Rep2): 0%
mortality at 0.024 µM (Ixodes scapularis; 12 h, Rep1): 0%
mortality at 0.024 µM (Ixodes scapularis; 12 h, Rep2): 0%
mortality at 0.098 µM (Ixodes scapularis; 12 h, Rep1): 0%
mortality at 0.098 µM (Ixodes scapularis; 12 h, Rep2): 0%
mortality at 0.39 µM (Ixodes scapularis; 12 h, Rep1): 0%
mortality at 0.39 µM (Ixodes scapularis; 12 h, Rep2): 0%
mortality at 1.56 µM (Ixodes scapularis; 12 h, Rep1): 0%
mortality at 1.56 µM (Ixodes scapularis; 12 h, Rep2): 0%
mortality at 6.25 µM (Ixodes scapularis; 12 h, Rep1): 0%
mortality at 6.25 µM (Ixodes scapularis; 12 h, Rep2): 0%
mortality at 25 µM (Ixodes scapularis; 12 h, Rep1): 0%
mortality at 25 µM (Ixodes scapularis; 12 h, Rep2): 0%
mortality at 100 µM (Ixodes scapularis; 12 h, Rep1): 0%
mortality at 100 µM (Ixodes scapularis; 12 h, Rep2): 0%
mortality at 0.006 µM (Ixodes scapularis; 24 h, Rep1): 0%
mortality at 0.006 µM (Ixodes scapularis; 24 h, Rep2): 0%
mortality at 0.024 µM (Ixodes scapularis; 24 h, Rep1): 0%
mortality at 0.024 µM (Ixodes scapularis; 24 h, Rep2): 0%
mortality at 0.098 µM (Ixodes scapularis; 24 h, Rep1): 0%
mortality at 0.098 µM (Ixodes scapularis; 24 h, Rep2): 0%
mortality at 0.39 µM (Ixodes scapularis; 24 h, Rep1): 0%
mortality at 0.39 µM (Ixodes scapularis; 24 h, Rep2): 0%
mortality at 1.56 µM (Ixodes scapularis; 24 h, Rep1): 0%
mortality at 1.56 µM (Ixodes scapularis; 24 h, Rep2): 0%
mortality at 6.25 µM (Ixodes scapularis; 24 h, Rep1): 0%
mortality at 6.25 µM (Ixodes scapularis; 24 h, Rep2): 0%
mortality at 25 µM (Ixodes scapularis; 24 h, Rep1): 0%
mortality at 25 µM (Ixodes scapularis; 24 h, Rep2): 0%
mortality at 100 µM (Ixodes scapularis; 24 h, Rep1): 20%
mortality at 100 µM (Ixodes scapularis; 24 h, Rep2): 0%
mortality at 0.006 µM (Ixodes scapularis; 48 h, Rep1): 0%
mortality at 0.006 µM (Ixodes scapularis; 48 h, Rep2): 0%
mortality at 0.024 µM (Ixodes scapularis; 48 h, Rep1): 0%
mortality at 0.024 µM (Ixodes scapularis; 48 h, Rep2): 0%
mortality at 0.098 µM (Ixodes scapularis; 48 h, Rep1): 0%
mortality at 0.098 µM (Ixodes scapularis; 48 h, Rep2): 0%
mortality at 0.39 µM (Ixodes scapularis; 48 h, Rep1): 0%
mortality at 0.39 µM (Ixodes scapularis; 48 h, Rep2): 0%
mortality at 1.56 µM (Ixodes scapularis; 48 h, Rep1): 0%
mortality at 1.56 µM (Ixodes scapularis; 48 h, Rep2): 0%
mortality at 6.25 µM (Ixodes scapularis; 48 h, Rep1): 0%
mortality at 6.25 µM (Ixodes scapularis; 48 h, Rep2): 0%
mortality at 25 µM (Ixodes scapularis; 48 h, Rep1): 10%
mortality at 25 µM (Ixodes scapularis; 48 h, Rep2): 30%
mortality at 100 µM (Ixodes scapularis; 48 h, Rep1): 50%
mortality at 100 µM (Ixodes scapularis; 48 h, Rep2): 30%
